Measured values reported in patent US8067452B2, “3-hydroxyisothiazole-4-carboxamidine derivatives as CHK2 inhibitors” (Valeant Pharmaceuticals International, priority 2007, dated 2011).

target: T1, Chk2 (Homo sapiens, UniProt O96017); assay: In vitro kinase assay with recombinant Chk2 (MBP phosphorylation, [γ-33P]ATP); type: biochemical; conditions: recombinant human GST-Chk2 10 nM, 25 μM MBP, 100 μM ATP, 30 min at 24° C.; read-out: The enzymatic IC50 values of compounds against Chk2
T1 construct: GST; purchased Upstate (Lake Placid, N.Y.)
T1 sequence (O96017 whole entry): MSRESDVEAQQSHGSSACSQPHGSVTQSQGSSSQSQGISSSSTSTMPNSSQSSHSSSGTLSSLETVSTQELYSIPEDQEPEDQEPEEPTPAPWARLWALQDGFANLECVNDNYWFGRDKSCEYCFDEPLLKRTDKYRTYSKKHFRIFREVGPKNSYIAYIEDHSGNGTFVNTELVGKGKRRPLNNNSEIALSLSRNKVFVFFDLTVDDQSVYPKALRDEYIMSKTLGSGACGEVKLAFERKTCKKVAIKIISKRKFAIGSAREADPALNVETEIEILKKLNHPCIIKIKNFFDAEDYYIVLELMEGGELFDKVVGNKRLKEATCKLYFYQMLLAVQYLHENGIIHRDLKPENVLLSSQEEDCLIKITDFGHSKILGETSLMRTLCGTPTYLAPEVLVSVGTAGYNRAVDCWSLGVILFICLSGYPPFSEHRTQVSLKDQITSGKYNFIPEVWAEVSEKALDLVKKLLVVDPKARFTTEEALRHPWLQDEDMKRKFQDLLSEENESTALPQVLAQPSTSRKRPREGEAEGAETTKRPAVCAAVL
Method: In vitro kinase assays with recombinant Chk1 and Chk2. Recombinant human GST-Chk1 and GST-Chk2 proteins were purchased from Upstate (Lake Placid, N.Y.). Assay conditions were based on published protocols with minor modifications. Briefly, 10 nM of Chk1 or Chk2 was used to phosphorylate 25 μM myelin basic protein (MBP) (Invitrogen, Carlsbad, Calif.) This reaction took place in a buffer that contained 8 mM MOPS, pH 7.2, 10 mM β-glycerol phosphate, 1.5 mM EGTA, 0.4 mM EDTA, 0.4 mM sodium orthovanadate, 100 μM ATP, 1 μCi [γ-^33P] ATP, 15 mM MgCl2, 0.4 mM DTT, 0.006% Brij-35, 1% glycerol and 0.2 mg/ml BSA in a final volume of 25 μl. The reaction was incubated for 30 minutes at 24° C. and was terminated by adding 100 μl of 1% trichloroacetic acid. The quenched solution was incubated for 5 min at room temperature to allow the protein to precipitate and then subsequently transferred to a 96-well white GF/B filter plate (Perkin Elmer, Wellesley, Mass.) using a Perkin Elmer Filtermate Universal Harvester. The filter plate was washed ten times with water and once with ethanol before completely drying. 40 μL of Microscint™ (Perkin Elmer, Wellesley, Mass.) was added to each well and the radioactivity that was incorporated into MBP was counted using a Perkin Elmer TopCount. The compound was titrated and its IC50 values against both Chk1 and Chk2 were determined. The reported IC50 values are the average of at least two sets of data. To determine the competitive nature of the compound with ATP, the compound concentration was varied from 0-200 nM while ATP was varied from 50-500 μM in the assays to assess the ATP effect on inhibition. Prism 4.0 software (GraphPad, San Diego Calif.) was used for the IC50 determination and Lineweaver-Burk kinetic analysis.

Row | IC50 [nM] | SMILES
1 | 1 to 500 | CC(C)NC(=N)c1c(O)nsc1Nc1ccc(Nc2ccc(Br)cc2)cc1 [Entry 1]
2 | 1 to 500 | N=C(NCc1cccc2ccccc12)c1c(O)nsc1Nc1ccc(Nc2ccccc2)cc1 [Entry 13]
3 | 1 to 500 | N=C(NCC1CCCCC1)c1c(O)nsc1Nc1ccc(Nc2ccc(Br)cc2)cc1 [Entry 4]
4 | 1 to 500 | N=C(NCCO)c1c(O)nsc1Nc1ccc(Nc2ccc(Br)cc2)cc1 [Entry 3]
5 | 1 to 500 | N=C(NCC(O)CO)c1c(O)nsc1Nc1ccc(Nc2ccc(Br)cc2)cc1 (stereo not shown) [Entry 6]
6 | 500 to 1000 | N=C(NCCO)c1c(O)nsc1Nc1ccc(Nc2ccccc2)cc1 [Entry 9]
7 | 1 to 500 | N=C(NCCCCO)c1c(O)nsc1Nc1ccc(Nc2ccc(Br)cc2)cc1 [Entry 5]
8 | 1000 to 2000 | N=C(NCC1CCCCC1)c1c(O)nsc1Nc1ccc(Nc2ccccc2)cc1 [Entry 10]
9 | 500 to 1000 | N=C(NCC(O)CO)c1c(O)nsc1Nc1ccc(Nc2ccccc2)cc1 (stereo not shown) [Entry 12]
10 | 1 to 500 | CC(CO)NC(=N)c1c(O)nsc1Nc1ccc(Nc2ccc(Br)cc2)cc1 (stereo not shown) [Entry 2]
11 | 1000 to 2000 | N=C(NCCCCO)c1c(O)nsc1Nc1ccc(Nc2ccccc2)cc1 [Entry 11]
12 | 1 to 500 | CC(C)NC(=N)c1c(O)nsc1Nc1ccc(Nc2ccccc2)cc1 [Entry 7]
13 | 1 to 500 | CC(CO)NC(=N)c1c(O)nsc1Nc1ccc(Nc2ccccc2)cc1 (stereo not shown) [Entry 8]
